The values that follow come from patent US20250115628A1, “FLUORINATED FLUOROPHORES” (HOWARD HUGHES MEDICAL INSTITUTE, priority 2023, published 2025).

The conditions of data set [1]: rhodamine derivatives; 10 mM HEPES, pH 7.3; data from the inventors' published work; cited from earlier work.
For data set [2] the following is noted: rhodamine derivatives; 10 mM HEPES, pH 7.3; data from the inventors' published work; cited from earlier work. The source holds these as a separate data set.
Data set [3] is described as follows: General UV-vis and fluorescence spectroscopy. The class given is physicochemical. Particulars: 10 mM HEPES, pH 7.3. How it is done: Spectroscopy was performed using 1^−cm path length, 3.5^−mL quartz cuvettes or 1^−cm path length, 1.4^−mL semi-micro quartz cuvettes from Starna Cells. All measurements were taken at ambient temperature (22±2° C.). Absorption spectra were recorded on a Cary Model 100 spectrometer (Agilent), and fluorescence spectra were recorded on a Cary Eclipse fluorometer (Varian). The spectra, maximum absorption wavelength (labs), extinction coefficient at λabs (8), and maximum emission wavelength (em) were measured in 10 mM HEPES, pH 7.3 buffer (rhodamines and Malachite Green derivative 49) or 0.1 M NaOH (fluoresceins); the reported values for e are averages (n=3). Normalized spectra are shown for clarity.

Data set [4] in a line: Quantum yield determination. The class given is physicochemical. Particulars: 10 mM HEPES, pH 7.3. How it is done:
All reported absolute fluorescence quantum yield values (Φf) were measured using a Quantaurus-QY spectrometer (model C11374, Hamamatsu). This instrument uses an integrating sphere to determine photons absorbed and emitted by a sample. Measurements were carried out using dilute samples (A<0.1), and self-absorption corrections were performed using the instrument software.^81

Data set [5] can be described thus: Determination of KL-Z (lactone-zwitterion equilibrium constant). As to conditions: 1:1 dioxane:H2O. On the set-up: key: KL-Z = (εdw/εmax)/(1−εdw/εmax); εdw measured in 1:1 dioxane/water. Format: physicochemical. How it is done: KL-Z was calculated using the following equation:^16, 18 KL-Z=(εdw/εmax)/(1−εdw/εmax). εdw is the extinction coefficient of the dyes in a 1:1 (v/v) dioxane/water solvent mixture; this dioxane/water mixture was chosen to give the maximum spread of KL-Z values across all classes of rhodamines.^18 εmax refers to the maximal extinction coefficients measured in different solvent mixtures empirically determined depending on dye type: 0.1% v/v trifluoroacetic acid in ethanol for 18, 20, 29, 34, 36, 70-72, 81-83, 93-95, 99-102, and 104; 0.1% v/v trifluoroacetic acid in 2,2,2^−trifluoroethanol for all other rhodamine variants. A accurate determination of low KL-Z values is complicated by the relatively poor sensitivity of absorbance measurements.

Molecules are shown by their SMILES. Like-named read-outs stand apart in the source and are kept apart here.

For the compound `C[Si]1(C)c2cc(N3CCC3)ccc2C2(OC(=O)c3ccccc32)c2ccc(N3CCC3)cc21` [compound 1, JF646], in data set [1], the ε was 5,600 M^−1cm^−1, the λabs is given as 646 nm and the λem is given as 664 nm. The Φf in data set [2] was 0.54.
With `CC1(C)C2=CC(=N)C=CC2=C(c2c(F)c(F)c(F)c(F)c2C(=O)O)c2ccc(N)cc21` [compound 71, 4,5,6,7^−Tetrafluoro-carborhodamine 110], in data set [3] (rhodamine derivatives), the ε is 96,400 M^−1cm^−1, the λabs is reported as 575 nm and the λem came out at 597 nm. In data set [4] (rhodamine derivatives), this compound gave a Φf of 0.53. The KL-Z in data set [5] (rhodamine derivatives) worked out at 0.832.
`C[Si]1(C)C2=CC(=N)C=CC2=C(c2c(F)c(F)c(F)c(F)c2C(=O)O)c2ccc(N)cc21` [compound 72, 4,5,6,7^−Tetrafluoro-Si-rhodamine 110]: in data set [3] (rhodamine derivatives), the ε is 77,800 M^−1cm^−1, the λabs is reported as 611 nm and the λem stood at 627 nm. The compound also registered a Φf in data set [4] (rhodamine derivatives) of 0.42. In addition, in data set [5] (rhodamine derivatives), the KL-Z was found to be 0.0195.
As for `CCC1=CC2=C(c3ccccc3C(=O)O)c3cc4c(cc3C(C)(C)C2=CC1=NC)NCCC4` [compound 94, Carbo-Q-rhodamine], in data set [3] (rhodamine derivatives), the ε is listed as 101,000 M^−1cm^−1, the λabs is 598 nm and the λem turned out to be 620 nm. The Φf in data set [4] (rhodamine derivatives) came to 0.51. In data set [5] (rhodamine derivatives), this compound registered a KL-Z of 1.51.
For `CC1CC(C)(C)Nc2cc3[o+]c4cc5c(cc4c(-c4ccccc4C(=O)[O-])c3cc21)C(C)CC(C)(C)N5` (centres unmarked) [compound 99, 2^−(2,2,4,8,10,10^−Hexamethyl-1,2,3,4,8,9,10,11-octahydropyrano[3,2^−g:5,6^−g′]diquinolin-13^−ium-6^−yl)benzoate], in data set [3] (quinolinyl rhodamines), the ε was 112,000 M^−1cm^−1, the λabs is on record as 542 nm and the λem was 564 nm. For the same compound, the Φf in data set [4] (quinolinyl rhodamines) came out at 0.83. The compound further returned a KL-Z in data set [5] (quinolinyl rhodamines) of 6.30.
As for `CC1CC(C)(C)Nc2cc3c(cc21)C(c1ccccc1C(=O)O)=c1cc2c(cc1[Si]3(C)C)=NC(C)(C)CC2C` (centres unmarked) [compound 100, 2^−(2,2,4,8,10,10,13,13-Octamethyl-2,3,4,8,9,10,11,13-octahydrosilino[3,2^−g:5,6^−g]diquinolin-6^−ylium-6(1H)-yl)-benzoate], in data set [3] (quinolinyl rhodamines), the ε is listed as 10,400 M^−1cm^−1, the λabs stood at 638 nm and the λem turned out to be 655 nm. For the same compound, the Φf in data set [4] (quinolinyl rhodamines) is reported as 0.34. The KL-Z in data set [5] (quinolinyl rhodamines) amounted to 0.0220.
Taken in the same sequence, the figures for `CC1=CC(C)(C)Nc2cc3[o+]c4cc5c(cc4c(-c4ccccc4C(=O)[O-])c3cc21)C(C)=CC(C)(C)N5` [compound 101, 2^−(2,2,4,8,10,10^−Hexamethyl-1,2,10,11^−tetrahydropyrano[3,2-g:5,6^−g′]diquinolin-13^−ium-6^−yl)benzoate] were 94,100 M^−1cm^−1, 573 nm, 595 nm, 0.68 and 5.14.
As for `CC1=CC(C)(C)N(C)c2cc3c(cc21)C(c1ccccc1C(=O)[O-])=c1cc2c(cc1O3)=[N+](C)C(C)(C)C=C2C` [compound 103, 2^−(1,2,2,4,8,10,10,11-Octamethyl-1,2,10,11-tetrahydropyrano[3,2^−g:5,6^−g]diquinolin-13^−ium-6^−yl)benzoate], in data set [3] (quinolinyl rhodamines), the ε is reported as 95,200 M^−1cm^−1, the λabs came to 585 nm and the λem is 610 nm. Also, the Φf in data set [4] (quinolinyl rhodamines) amounted to 0.73. Moreover, in data set [5] (quinolinyl rhodamines), the KL-Z came to 4.44.
With `CN1CCc2cc3c(cc21)[Si](C)(C)c1cc2c(cc1=C3c1c(F)c(F)c(F)c(F)c1C(=O)[O-])CC[N+]=2C` [compound 108, SiRF712], in data set [3] (rhodamine derivatives), the ε is 98,800 M^−1cm^−1, the λabs is given as 712 nm and the λem worked out at 735 nm. Moreover, the Φf in data set [4] (rhodamine derivatives) is reported as 0.09. This compound also gave a KL-Z in data set [5] (rhodamine derivatives) of 1.97.
